Laboratory results: US8541588B2, “Sulfonamide derivatives” (Pfizer Limited, priority 2009, dated 2013)

Target: T1, Nav1.7 (or SCN9A) channel; HEK cells stably transfected with hSCN9A (Homo sapiens, UniProt Q15858)
T1 construct: expressed in transfected cells
Assay: Nav1.7 block, PatchXpress 7000 automated whole-cell voltage clamp, estimated IC50 (EIC50)
Type: cell-based
Settings: estimated IC50; hSCN9A HEK cells, PatchXpress platform; Examples 283-814

T1 sequence (Q15858 whole entry): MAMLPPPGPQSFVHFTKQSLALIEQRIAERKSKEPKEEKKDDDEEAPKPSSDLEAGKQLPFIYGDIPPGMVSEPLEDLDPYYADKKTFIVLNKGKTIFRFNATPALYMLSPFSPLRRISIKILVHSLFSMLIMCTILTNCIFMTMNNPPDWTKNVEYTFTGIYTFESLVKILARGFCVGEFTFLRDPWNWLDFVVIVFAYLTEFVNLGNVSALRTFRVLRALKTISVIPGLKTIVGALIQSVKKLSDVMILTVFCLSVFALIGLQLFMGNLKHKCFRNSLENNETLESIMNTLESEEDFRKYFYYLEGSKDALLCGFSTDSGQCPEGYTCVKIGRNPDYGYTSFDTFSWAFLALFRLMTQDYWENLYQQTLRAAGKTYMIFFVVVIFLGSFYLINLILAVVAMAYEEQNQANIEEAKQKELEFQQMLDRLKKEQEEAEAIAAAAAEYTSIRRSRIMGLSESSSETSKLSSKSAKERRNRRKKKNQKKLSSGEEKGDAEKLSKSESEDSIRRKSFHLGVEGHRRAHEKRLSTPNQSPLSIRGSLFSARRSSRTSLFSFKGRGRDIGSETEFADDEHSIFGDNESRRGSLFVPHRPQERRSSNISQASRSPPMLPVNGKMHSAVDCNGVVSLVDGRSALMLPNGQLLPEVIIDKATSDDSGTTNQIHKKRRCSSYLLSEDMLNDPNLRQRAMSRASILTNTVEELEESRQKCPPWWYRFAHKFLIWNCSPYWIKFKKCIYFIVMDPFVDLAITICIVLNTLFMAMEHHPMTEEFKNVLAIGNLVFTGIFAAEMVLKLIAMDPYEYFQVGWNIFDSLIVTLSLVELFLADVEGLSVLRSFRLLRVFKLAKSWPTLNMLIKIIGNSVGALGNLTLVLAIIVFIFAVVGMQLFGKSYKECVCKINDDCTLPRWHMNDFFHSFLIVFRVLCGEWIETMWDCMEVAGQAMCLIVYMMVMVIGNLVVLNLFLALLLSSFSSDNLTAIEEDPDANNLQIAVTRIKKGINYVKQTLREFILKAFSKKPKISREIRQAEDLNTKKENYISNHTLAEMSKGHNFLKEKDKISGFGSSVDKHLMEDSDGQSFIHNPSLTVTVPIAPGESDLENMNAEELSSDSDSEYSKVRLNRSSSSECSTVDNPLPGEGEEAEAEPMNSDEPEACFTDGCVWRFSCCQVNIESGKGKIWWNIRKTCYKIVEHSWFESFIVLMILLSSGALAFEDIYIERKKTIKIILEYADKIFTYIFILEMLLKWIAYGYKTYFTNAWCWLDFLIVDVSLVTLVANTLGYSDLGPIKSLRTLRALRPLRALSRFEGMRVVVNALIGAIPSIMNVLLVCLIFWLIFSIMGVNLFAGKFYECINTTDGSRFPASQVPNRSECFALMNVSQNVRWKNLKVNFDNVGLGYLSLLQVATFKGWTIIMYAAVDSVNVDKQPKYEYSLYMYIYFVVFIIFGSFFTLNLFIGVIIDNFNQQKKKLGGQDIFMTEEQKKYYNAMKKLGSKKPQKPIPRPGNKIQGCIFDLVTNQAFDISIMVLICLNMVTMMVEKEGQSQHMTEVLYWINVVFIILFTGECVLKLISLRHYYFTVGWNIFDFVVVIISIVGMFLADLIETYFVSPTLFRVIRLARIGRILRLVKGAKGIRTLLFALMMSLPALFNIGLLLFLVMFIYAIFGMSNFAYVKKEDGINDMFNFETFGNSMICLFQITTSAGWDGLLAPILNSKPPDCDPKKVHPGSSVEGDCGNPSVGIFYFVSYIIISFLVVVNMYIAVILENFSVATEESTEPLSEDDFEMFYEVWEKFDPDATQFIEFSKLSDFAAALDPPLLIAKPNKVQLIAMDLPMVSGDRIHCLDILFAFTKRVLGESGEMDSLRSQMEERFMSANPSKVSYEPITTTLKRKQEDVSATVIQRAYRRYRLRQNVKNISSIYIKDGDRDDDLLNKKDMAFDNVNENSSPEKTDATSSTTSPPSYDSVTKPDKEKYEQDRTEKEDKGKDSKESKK

| Compound | IC50 [nM] |
| --- | --- |
| CCc1ccc(Oc2ccc(S(=O)(=O)Nc3nccs3)cc2C#N)c(-c2ccnn2C)c1 [Example 350, 3-cyano-4-[4-ethyl-2-(1-methyl-1H-pyrazol-5-yl)phenoxy]-N-1,3-thiazol-2-ylbenzenesulfonamide] | 15 |
| CC(C)c1ccc(Oc2ccc(S(=O)(=O)Nc3nccs3)cc2C#N)c(-c2ccnn2C)c1 [Example 351, 3-cyano-4-[4-isopropyl-2-(1-methyl-1H-pyrazol-5-yl)phenoxy]-N-1,3-thiazol-2-ylbenzenesulfonamide] | 18 |
| CC(C)c1cc(-n2ccc(C(F)(F)F)n2)ccc1Oc1ccc(S(=O)(=O)Nc2nccs2)cc1C#N [Example 352, 3-cyano-4-{2-isopropyl-4-[3-(trifluoromethyl)-1H-pyrazol-1-yl]phenoxy}-N-1,3-thiazol-2-ylbenzenesulfonamide] | 190 |
| CC(C)c1cc(-n2cc(Cl)cn2)ccc1Oc1ccc(S(=O)(=O)Nc2nccs2)cc1C#N [Example 353, 4-[4-(4-chloro-1H-pyrazol-1-yl)-2-isopropylphenoxy]-3-cyano-N-1,3-thiazol-2-ylbenzenesulfonamide] | 220 |
| CC(C)c1cc(-c2cc(C(F)(F)F)nn2C)ccc1Oc1ccc(S(=O)(=O)Nc2nccs2)cc1C#N [Example 354, 3-cyano-4-{2-isopropyl-4-[1-methyl-3-(trifluoromethyl)-1H-pyrazol-5-yl]phenoxy}-N-1,3-thiazol-2-ylbenzenesulfonamide] | 180 |
| N#Cc1cc(S(=O)(=O)Nc2nccs2)ccc1Oc1ccc(Br)cc1CN1CCCC1 [Example 355, 4-[4-bromo-2-(pyrrolidin-1-ylmethyl)phenoxy]-3-cyano-N-1,3-thiazol-2-ylbenzenesulfonamide] | 400 |
| Cc1cc(C(F)(F)F)nn1-c1ccc(Oc2ccc(S(=O)(=O)Nc3nccs3)cc2C#N)c(C(C)C)c1 [Example 356, 3-cyano-4-{2-isopropyl-4-[5-methyl-3-(trifluoromethyl)-1H-pyrazol-1-yl]phenoxy}-N-1,3-thiazol-2-ylbenzenesulfonamide] | 120 |
| N#Cc1cc(S(=O)(=O)Nc2nccs2)ccc1Oc1ccc(Cl)cc1CN1CCC(O)C1 (centres unmarked) [Example 357, 4-{4-chloro-2-[(3-hydroxypyrrolidin-1-yl)methyl]phenoxy}-3-cyano-N-1,3-thiazol-2-ylbenzenesulfonamide] | 390 |
| N#Cc1cc(S(=O)(=O)Nc2nccs2)ccc1Oc1ccc(Cl)cc1CN1CCC(F)(F)CC1 [Example 358, 4-{4-chloro-2-[(4,4-difluoropiperidin-1-yl)methyl]phenoxy}-3-cyano-N-1,3-thiazol-2-ylbenzenesulfonamide] | 360 |
| Cn1nccc1-c1ccc(I)cc1Oc1ccc(S(=O)(=O)Nc2nccs2)cc1C#N [Example 359, 3-cyano-4-[5-iodo-2-(1-methyl-1H-pyrazol-5-yl)phenoxy]-N-1,3-thiazol-2-ylbenzenesulfonamide] | 11 |
| N#Cc1cc(S(=O)(=O)Nc2nccs2)ccc1Oc1ccc(Cl)cc1CN1CCC(F)(F)C1 [Example 360, 4-{4-chloro-2-[(3,3-difluoropyrrolidin-1-yl)methyl]phenoxy}-3-cyano-N-1,3-thiazol-2-ylbenzenesulfonamide] | 330 |
| Cn1nccc1-c1cc(Cl)ccc1Oc1ccc(S(=O)(=O)Nc2ccncn2)cc1C#N [Example 361, 4-[4-chloro-2-(1-methyl-1H-pyrazol-5-yl)phenoxy]-3-cyano-N-pyrimidin-4-ylbenzenesulfonamide] | 480 |
| Cn1nccc1-c1cc(F)ccc1Oc1cc(F)c(S(=O)(=O)Nc2csnn2)cc1Cl [Example 364, 5-chloro-2-fluoro-4-(4-fluoro-2-(1-methyl-1H-pyrazol-5-yl)phenoxy)-N-(1,2,3-thiadiazol-4-yl)benzenesulfonamide] | 480 |
| Cn1nccc1-c1cc(OC(F)(F)F)ccc1Oc1ccc(S(=O)(=O)Nc2nccs2)cc1F [Example 365, 3-fluoro-4-[2-(1-methyl-1H-pyrazol-5-yl)-4-(trifluoromethoxy)phenoxy]-N-1,3-thiazol-2-ylbenzenesulfonamide] | 69 |
| N#Cc1cc(S(=O)(=O)Nc2ccc(F)cn2)ccc1Oc1ccccc1-c1ccccc1 [Example 366, 4-(biphenyl-2-yloxy)-3-cyano-N-(5-fluoropyridin-2-yl)benzenesulfonamide] | 4800 |
| CCn1nc(C(F)(F)F)cc1-c1ccc(Oc2ccc(S(=O)(=O)Nc3ccc(F)cn3)cc2C#N)cc1 [Example 367, 3-cyano-4-{4-[1-ethyl-3-(trifluoromethyl)-1H-pyrazol-5-yl]phenoxy}-N-(5-fluoropyridin-2-yl)benzenesulfonamide] | 2400 |
| CCn1nc(C(F)(F)F)cc1-c1cccc(Oc2ccc(S(=O)(=O)Nc3ccc(F)cn3)cc2C#N)c1 [Example 368, 3-cyano-4-{3-[1-ethyl-3-(trifluoromethyl)-1H-pyrazol-5-yl]phenoxy}-N-(5-fluoropyridin-2-yl)benzenesulfonamide] | >1000 |
| CCn1nc(C2CC2)cc1-c1ccc(Oc2ccc(S(=O)(=O)Nc3nccs3)cc2C#N)cc1 [Example 369, 3-cyano-4-[4-(3-cyclopropyl-1-ethyl-1H-pyrazol-5-yl)phenoxy]-N-1,3-thiazol-2-ylbenzenesulfonamid] | 490 |

| Compound | IC50 [nM] |
| --- | --- |
| N#Cc1cc(S(=O)(=O)Nc2nccs2)ccc1Oc1ccc(-n2ccc(C3CC3)n2)cc1 [Example 370, 3-cyano-4-[4-(3-cyclopropyl-1H-pyrazol-1-yl)phenoxy]-N-1,3-thiazol-2-ylbenzenesulfonamide] | 1600 |
| Cn1nc(-c2ccc(Oc3ccc(S(=O)(=O)Nc4nccs4)cc3C#N)cc2)cc1C(F)(F)F [Example 371, 3-cyano-4-{4-[1-methyl-5-(trifluoromethyl)-1H-pyrazol-3-yl]phenoxy}-N-1,3-thiazol-2-ylbenzenesulfonamide] | 1800 |
| CCn1nc(-c2ccc(Oc3ccc(S(=O)(=O)Nc4nccs4)cc3C#N)cc2)cc1C1CC1 [Example 372, 3-cyano-4-[4-(5-cyclopropyl-1-ethyl-1H-pyrazol-3-yl)phenoxy]-N-1,3-thiazol-2-ylbenzenesulfonamide] | 2600 |
| N#Cc1cc(S(=O)(=O)Nc2nccs2)ccc1Oc1ccc(-c2cc(C3CC3)n[nH]2)c(Cl)c1 [Example 373, 4-[3-chloro-4-(3-cyclopropyl-1H-pyrazol-5-yl)phenoxy]-3-cyano-N-1,3-thiazol-2-ylbenzenesulfonamide] | >1000 |
| Cc1cc(-c2ccc(Oc3ccc(S(=O)(=O)Nc4nccs4)cc3C#N)cc2)n(CCO)n1 [Example 374, 3-cyano-4-{4-[1-(2-hydroxyethyl)-3-methyl-1H-pyrazol-5-yl]phenoxy}-N-1,3-thiazol-2-ylbenzenesulfonamide] | 1900 |
| CN(C)C(=O)c1cnn(-c2ccc(Oc3ccc(S(=O)(=O)Nc4nccs4)cc3C#N)cc2)c1 [Example 375, 1-(4-{2-cyano-4-[(1,3-thiazol-2-ylamino)sulfonyl]phenoxy}phenyl)-N,N-dimethyl-1H-pyrazole-4-carboxamide] | >1000 |
| COCc1cnn(-c2ccc(Oc3ccc(S(=O)(=O)Nc4nccs4)cc3C#N)cc2)c1 [Example 376, 3-cyano-4-{4-[4-(methoxymethyl)-1H-pyrazol-1-yl]phenoxy}-N-1,3-thiazol-2-ylbenzenesulfonamide] | >1000 |
| CN(C)Cc1cnn(-c2ccc(Oc3ccc(S(=O)(=O)Nc4nccs4)cc3C#N)cc2)c1 [Example 377, 3-cyano-4-(4-{4-[(dimethylamino)methyl]-1H-pyrazol-1-yl}phenoxy)-N-1,3-thiazol-2-ylbenzenesulfonamide] | >1000 |
| CC(C)(C)NC(=O)c1cnn(-c2ccc(Oc3ccc(S(=O)(=O)Nc4nccs4)cc3C#N)cc2)c1 [Example 378, N-tert-butyl-1-(4-{2-cyano-4-[(1,3-thiazol-2-ylamino)sulfonyl]phenoxy}phenyl)-1H-pyrazole-4-carboxamide] | >1000 |
| N#Cc1cc(S(=O)(=O)Nc2nccs2)ccc1Oc1ccc(-n2cc(C(N)=O)cn2)cc1 [Example 379, 1-(4-{2-cyano-4-[(1,3-thiazol-2-ylamino)sulfonyl]phenoxy}phenyl)-1H-pyrazole-4-carboxamide] | >1000 |
| N#Cc1cc(S(=O)(=O)Nc2nccs2)ccc1Oc1ccc(-n2ccc(C(F)(F)F)n2)c(Cl)c1 [Example 380, 4-{3-chloro-4-[3-(trifluoromethyl)-1H-pyrazol-1-yl]phenoxy}-3-cyano-N-1,3-thiazol-2-ylbenzenesulfonamide] | 200 |
| N#Cc1cc(S(=O)(=O)Nc2nccs2)ccc1Oc1ccc(-n2ccc(C(F)(F)F)n2)c(F)c1 [Example 381, 3-cyano-4-{3-fluoro-4-[3-(trifluoromethyl)-1H-pyrazol-1-yl]phenoxy}-N-1,3-thiazol-2-ylbenzenesulfonamide] | 470 |
| N#Cc1cc(S(=O)(=O)Nc2nccs2)ccc1Oc1ccc(-c2cc(C(F)(F)F)nn2CCO)cc1 [Example 382, 3-cyano-4-{4-[1-(2-hydroxyethyl)-3-(trifluoromethyl)-1H-pyrazol-5-yl]phenoxy}-N-1,3-thiazol-2-ylbenzenesulfonamide] | 50 |
| Cn1nc(C(F)F)cc1-c1ccc(Oc2ccc(S(=O)(=O)Nc3nccs3)cc2C#N)cc1 [Example 383, 3-cyano-4-{4-[3-(difluoromethyl)-1-methyl-1H-pyrazol-5-yl]phenoxy}-N-1,3-thiazol-2-ylbenzenesulfonamide] | 310 |
| N#Cc1cc(S(=O)(=O)Nc2nccs2)ccc1Oc1ccc(-n2cc(Cl)cn2)c(Cl)c1 [Example 384, 4-[3-chloro-4-(4-chloro-1H-pyrazol-1-yl)phenoxy]-3-cyano-N-1,3-thiazol-2-ylbenzenesulfonamide] | 350 |
| N#Cc1cc(S(=O)(=O)Nc2ncns2)ccc1Oc1ccccc1-c1cn[nH]c1 [Example 385, 4-(2-(1H-pyrazol-4-yl)phenoxy)-3-cyano-N-(1,2,4-thiadiazol-5-yl)benzenesulfonamide] | 67 |
| Cn1nccc1-c1cc(F)ccc1Oc1ccc(S(=O)(=O)Nc2ncc(F)s2)cc1C#N [Example 386, 3-cyano-4-[4-fluoro-2-(1-methyl-1H-pyrazol-5-yl)phenoxy]-N-(5-fluoro-1,3-thiazol-2-yl)benzenesulfonamide] | 91 |
